# Earlier results, collected in patent US6764693B1, “Free radical quenching composition and a method to increase intracellular and/or extracellular antioxidants” (Amaox, Ltd., priority 1992, dated 2004).
# Key:
# [1] = tested on: HIV in U1 cell line (promonocytes); conditions: increasing thiol concentration in culture medium of U1 cells
# [2] = pH of 1.0
# [3] = separate experimental protocols
# [4] = free GSH, intravenous
# [5] = oxidants from activated leukocytes
# [6] = antioxidant placed in liposomes
# T lymphocytes = conditions: activated leukocytes combined with T lymphocytes
Molecule,effect on HIV [1],mortality [3] [%],effect on lipid peroxidation of liposomes [5],other results
"CC(=O)N[C@@H](CS)C(=O)O [NAC, N-acetyl-cysteine]","suppression of viral assembly, HIV reverse transcriptase production and viral replication",–,–,rate constant K2 against the hydroxyl radical [2]: 1.36×10^10
"CC(C)(C)/[N+]([O-])=C/c1ccccc1 [PBN, phenyltertylnitrone]",–,42,–,–
N[C@@H](CCC(=O)N[C@@H](CS)C(=O)NCC(=O)O)C(=O)O [glutathione],"suppression of viral assembly, HIV reverse transcriptase production and viral replication",100,–,t½ [4]: approximately 1.6 minutes; rate constant K2 against the hydroxyl radical [2]: 8.8×10^9
"Cc1c(C)c2c(c(C)c1O)CCC(C)(CCCC(C)CCCC(C)CCCC(C)C)O2 (stereo not drawn) [vitamin E, alpha-tocopherol]",–,46,conferred protection against lipid peroxidation,effect on lipid peroxidation in liposomes exposed to uv [6]: inhibited
beta carotene [beta-carotene],–,–,conferred protection against lipid peroxidation,effect on lipid peroxidation in liposomes exposed to uv [6]: inhibited
catalase,–,–,inhibited peroxidation,suppression of lymphocytic function (T lymphocytes): no suppression of lymphocytic function
glutathione ester [GSE],"suppression of viral assembly, HIV reverse transcriptase production and viral replication",–,–,–
